Measurements: ChEMBL document CHEMBL1201862, “PubChem BioAssay data set” (2004)
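Results reflect a 48-hour exposure of cells in 96-well plates to compound at five concentrations. GI50 = concentration required for 50% inhibition of growth.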 Activity calls are given as the source filed them. Cut-off read from the data, not from the text of the source: active = GI50 up to about 1.1 µM and inactive = higher.

Key:
Assay in all cases: growth of human tumour cells (NCI), 48 h
CCRF-CEM = test system: CCRF-CEM
DMS-114 = test system: DMS-114
HT-29 = test system: HT-29
IGROV-1 = test system: IGROV-1
M19-MEL = test system: M19-MEL
MOLT-4 = test system: MOLT-4
Malme-3M = test system: Malme-3M
NCI-H226 = test system: NCI-H226
OVCAR-3 = test system: OVCAR-3
OVCAR-5 = test system: OVCAR-5
SF-295 = test system: SF-295
SF-539 = test system: SF-539
SK-MEL-2 = test system: SK-MEL-2
SK-MEL-5 = test system: SK-MEL-5
SNB-75 = test system: SNB-75
SR = test system: SR
TK-10 = test system: TK-10
UACC-62 = test system: UACC-62
SF-268 = test system: SF-268

SMILES	GI50 (CCRF-CEM)	GI50 (DMS-114)	GI50 (HT-29)	GI50 (IGROV-1)	GI50 (M19-MEL)	GI50 (MOLT-4)	GI50 (Malme-3M)	GI50 (NCI-H226)	GI50 (OVCAR-3)	GI50 (OVCAR-5)	GI50 (SF-295)	GI50 (SF-539)	GI50 (SK-MEL-2)	GI50 (SK-MEL-5)	GI50 (SNB-75)	GI50 (SR)	GI50 (TK-10)	GI50 (UACC-62)	GI50 (SF-268)
C[C@H]1CC[P+](C)(c2ccccc2)C1 (some centres not stated)	> 100 µM (inactive)	> 100 µM (inactive)	> 100 µM (inactive)	> 100 µM (inactive)	> 100 µM (inactive)	> 100 µM (inactive)	> 100 µM (inactive)	> 100 µM (inactive)	> 100 µM (inactive)	> 100 µM (inactive)	> 100 µM (inactive)	> 100 µM (inactive)	> 100 µM (inactive)	> 100 µM (inactive)	> 100 µM (inactive)	> 100 µM (inactive)	> 100 µM (inactive)	> 100 µM (inactive)	
COC(=O)Cc1nc2ccccc2o1	44.3 µM (inactive)	36.1 µM (inactive)	90.8 µM (inactive)	> 100 µM (inactive)	30.5 µM (inactive)	67.9 µM (inactive)	> 100 µM (inactive)	> 100 µM (inactive)	69 µM (inactive)	45.2 µM (inactive)	41.1 µM (inactive)	72.3 µM (inactive)	65.8 µM (inactive)	50.8 µM (inactive)	> 100 µM (inactive)	> 100 µM (inactive)	46.2 µM (inactive)	20.2 µM (inactive)	> 100 µM (inactive)
CCc1nc2c([nH]1)C(=O)c1ccccc1C2=O	48.5 µM (inactive)	21.2 µM (inactive)	43.2 µM (inactive)		15.3 µM (inactive)	46.3 µM (inactive)	24.8 µM (inactive)	34 µM (inactive)	23 µM (inactive)	> 100 µM (inactive)	45.7 µM (inactive)	48.9 µM (inactive)	> 100 µM (inactive)		> 100 µM (inactive)	38.5 µM (inactive)	> 100 µM (inactive)	29.9 µM (inactive)	70 µM (inactive)
Cc1ccc(Nc2cccc3c2C(=O)c2cccc(Nc4ccc(C)cc4S(=O)(=O)O)c2C3=O)c(S(=O)(=O)O)c1	> 100 µM (inactive)	> 100 µM (inactive)		> 100 µM (inactive)	> 100 µM (inactive)	> 100 µM (inactive)	> 100 µM (inactive)	> 100 µM (inactive)	> 100 µM (inactive)			> 100 µM (inactive)	> 100 µM (inactive)	> 100 µM (inactive)	> 100 µM (inactive)	> 100 µM (inactive)	> 100 µM (inactive)	> 100 µM (inactive)	> 100 µM (inactive)
Brc1ccc2c(C3CN[C@@H](c4c[nH]c5cc(Br)ccc45)CN3)c[nH]c2c1 (some centres not stated)	2.65 µM (inactive)	1.95 µM (inactive)	2.79 µM (inactive)	5.65 µM (inactive)	6.78 µM (inactive)	1.44 µM (inactive)	12.2 µM (inactive)	2.13 µM (inactive)	6.03 µM (inactive)	2.48 µM (inactive)	3.4 µM (inactive)	3.99 µM (inactive)	3.02 µM (inactive)	3.67 µM (inactive)	16.1 µM (inactive)	0.968 µM (active)	8.04 µM (inactive)	4.37 µM (inactive)	4.78 µM (inactive)
c1ccc(C2OC3(CCC[C@H]4C[C@H]43)O[C@H]2c2ccccc2)cc1 (some centres not stated)	22.2 µM (inactive)	33.7 µM (inactive)	31.3 µM (inactive)	> 100 µM (inactive)	32.2 µM (inactive)	25.8 µM (inactive)	34.5 µM (inactive)	26.2 µM (inactive)	37.4 µM (inactive)	60.8 µM (inactive)	46.3 µM (inactive)	> 100 µM (inactive)	21.5 µM (inactive)	25.3 µM (inactive)	26.5 µM (inactive)	27.2 µM (inactive)	> 100 µM (inactive)	57.3 µM (inactive)	73.8 µM (inactive)
CC1C=CC(O)[C@]2(CO)CC3(CCC12)OCCO3 (some centres not stated)	> 100 µM (inactive)	> 100 µM (inactive)	> 100 µM (inactive)	> 100 µM (inactive)	> 100 µM (inactive)	> 100 µM (inactive)	> 100 µM (inactive)	> 100 µM (inactive)	> 100 µM (inactive)	> 100 µM (inactive)	> 100 µM (inactive)	> 100 µM (inactive)	> 100 µM (inactive)	> 100 µM (inactive)	> 100 µM (inactive)	> 100 µM (inactive)	> 100 µM (inactive)	> 100 µM (inactive)	> 100 µM (inactive)
